# Test results as given in article PMC4624220 (Journal of medicinal chemistry, 2015).
# Several values for one entry are separate records, joined by “and”; a condition that tells them apart may be missing. Equal values may be shown once. Entries after “also recorded” stand apart in the source; their conditions may differ. Read-outs that look alike come from different tables or passages of the source.
# Key:
# α-syn fibrils [1] = target: T1, α-syn fibrils (Homo sapiens, UniProt P37840)
# Aβ1-42 fibrils [2] = target: T2, Aβ1-42 fibrils (Homo sapiens, UniProt P05067)
# T2 sequence (P05067 672-713 limits assumed): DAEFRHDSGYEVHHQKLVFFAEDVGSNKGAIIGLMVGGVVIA
# tau fibrils [3] = target: T3, tau fibrils (Homo sapiens, UniProt P10636)
# T3 sequence (P10636 560-692): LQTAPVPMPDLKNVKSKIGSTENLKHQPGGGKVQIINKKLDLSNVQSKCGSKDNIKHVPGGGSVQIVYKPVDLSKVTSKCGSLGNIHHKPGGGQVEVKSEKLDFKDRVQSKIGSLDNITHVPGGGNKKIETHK
# α-syn fibrils [4] = target: T1, α-syn fibrils; assay: biochemical
# Aβ1-42 fibrils [5] = target: T2, Aβ1-42 fibrils; assay: biochemical
# tau fibrils [6] = target: T3, tau fibrils; assay: biochemical
# Aβ plaques = Aβ plaques (Homo sapiens, UniProt P05067); assay: Fluorescent staining of postmortem AD temporal lobe tissue; conditions: 5 μM compound, AD temporal lobe sections, fluorescence microscopy
# Sequence of Aβ plaques (P05067 672-711 limits assumed): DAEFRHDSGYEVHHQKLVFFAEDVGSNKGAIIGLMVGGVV
# Lewy bodies = Lewy bodies (Homo sapiens, UniProt P37840); assay: Fluorescent staining of postmortem PD/DLB midbrain tissue; conditions: 5 μM compound, PD/DLB midbrain sections, fluorescence microscopy
# [7] = Stability of isomers in solution measured by HPLC; type: physicochemical; conditions: for time for isolated pure Z,E and E,E isomers to isomerize to a mixture: after HPLC separation of the isomers
compound,measurement,setting,value
3-(3-(4-(Dimethylamino)phenyl)allylidene)-1-(pyridin-4-ylmethyl)indolin-2-one [Compound 29],Ki,α-syn fibrils [1],92 ± 11.2 nM
same,Ki,Aβ1-42 fibrils [2],45.9 ± 19.4 nM
same,Ki,tau fibrils [3],188 ± 68 nM
3-(4-(Dimethylamino)benzylidene)-1-(pyridin-4-ylmethyl)indolin-2-one [Compound 11],Ki,α-syn fibrils [1],150 ± 45.7 nM
same,Ki,Aβ1-42 fibrils [2],87.1 ± 34.1 nM
same,Ki,tau fibrils [3],364 ± 121 nM
"O=C1Nc2ccccc2C1=C/C=C/c1ccccc1 [Compound 18, 3-(3-Phenylallylidene)indolin-2-one]",Ki,α-syn fibrils [4],206 nM and 207 nM
same,Ki,Aβ1-42 fibrils [5],267 nM
same,Ki,tau fibrils [6],522 nM
"COc1ccc(/C=C/C=C2C(=O)Nc3ccccc32)cc1 [Compound 19, 3-(3-(4-Methoxyphenyl)allylidene)indolin-2-one]",Ki,α-syn fibrils [4],62 nM and 61.1 nM
same,Ki,Aβ1-42 fibrils [5],125 nM and 126 nM
same,Ki,tau fibrils [6],169 ± 22.3 nM
"CN(C)c1ccc(/C=C/C=C2C(=O)Nc3ccccc32)cc1 [Compound 20, 3-(3-(4-(Dimethylamino)phenyl)allylidene)indolin-2-one]",Ki,α-syn fibrils [4],41 nM and 40.7 nM
same,labeling of Aβ plaques,Aβ plaques,label both Lewy bodies and Aβ plaques; also recorded: high labeling of both Lewy Bodies and Aβ plaques
same,Ki,Aβ1-42 fibrils [5],27 nM and 27.6 nM
same,labeling of Lewy bodies,Lewy bodies,label both Lewy bodies and Aβ plaques; also recorded: high labeling of both Lewy Bodies and Aβ plaques
same,"time for isolated pure Z,E and E,E isomers to isomerize to a mixture",[7],≤ 20 min
same,Ki,tau fibrils [6],54 nM and 53.7 nM
"CN(C)c1ccc(/C=C/C=C2C(=O)Nc3ncccc32)cc1 [Compound 21, 3-(3-(4-(Dimethylamino)phenyl)allylidene)-1H-pyrrolo[2,3-b]pyridin-2(3H)-one]",Ki,α-syn fibrils [4],11.5 ± 2 nM
same,Ki,Aβ1-42 fibrils [5],15.3 ± 5.5 nM
same,Ki,tau fibrils [6],35.1 ± 12.3 nM
"CN(C)c1ccc(/C=C/C=C2C(=O)Nc3ccc(O)cc32)cc1 [Compound 22, 3-(3-(4-(Dimethylamino)phenyl)allylidene)-5-hydroxyindolin-2-one]",Ki,α-syn fibrils [4],54 ± 17.9 nM
same,Ki,Aβ1-42 fibrils [5],37.1 ± 13.6 nM
same,Ki,tau fibrils [6],48 ± 17 nM
"COc1ccc(/C=C/C=C2C(=O)N(Cc3ccccc3)c3ccccc32)cc1 [Compound 24, 1-Benzyl-3-(3-(4-methoxyphenyl)allylidene)indolin-2-one]",Ki,α-syn fibrils [4],72.5 ± 22.6 nM
same,Ki,Aβ1-42 fibrils [5],741 ± 255 nM
same,Ki,tau fibrils [6],718 ± 295 nM
"CN(C)c1ccc(/C=C/C=C2C(=O)N(C)c3ccccc32)cc1 [Compound 25, 3-(3-(4-(Dimethylamino)phenyl)allylidene)-1-methylindolin-2-one]",Ki,α-syn fibrils [4],63.7 ± 29.6 nM
same,Ki,Aβ1-42 fibrils [5],56 ± 14.8 nM
same,Ki,tau fibrils [6],229 ± 121 nM
"CN(C)c1ccc(/C=C/C=C2C(=O)N(Cc3ccccc3)c3ccccc32)cc1 [Compound 26, 1-Benzyl-3-(3-(4-(dimethylamino)phenyl)allylidene)indolin-2-one]",Ki,α-syn fibrils [4],40.9 ± 25.2 nM
same,Ki,Aβ1-42 fibrils [5],358 ± 162 nM
same,Ki,tau fibrils [6],374 ± 209 nM
"COc1ccc(CN2C(=O)C(=C/C=C/c3ccc(N(C)C)cc3)c3ccccc32)cc1 [Compound 27, 3-(3-(4-(Dimethylamino)phenyl)allylidene)-1-(4-methoxybenzyl)indolin-2-one]",Ki,α-syn fibrils [4],54.6 ± 11.4 nM
same,Ki,Aβ1-42 fibrils [5],130 ± 41.4 nM
same,"time for isolated pure Z,E and E,E isomers to isomerize to a mixture",[7],≤ 20 min
same,Ki,tau fibrils [6],240 ± 158 nM
"CN(C)c1ccc(/C=C/C=C2C(=O)N(Cc3ccc([N+](=O)[O-])cc3)c3ccccc32)cc1 [Compound 28, 3-(3-(4-(Dimethylamino)phenyl)allylidene)-1-(4-nitrobenzyl)indolin-2-one]",Ki,α-syn fibrils [4],4 nM and 4.2 nM
same,Ki,Aβ1-42 fibrils [5],92.4 ± 21.9 nM
same,Ki,tau fibrils [6],90 ± 48.8 nM
"CCOC(=O)N1C(=O)C(=C/C=C/c2ccc(N(C)C)cc2)c2ccccc21 [Compound 30, Ethyl 3-(3-(4-(dimethylamino)phenyl)allylidene)-2-oxoindoline-1-carboxylate]",Ki,α-syn fibrils [4],45.3 ± 9 nM
same,Ki,Aβ1-42 fibrils [5],84 ± 35 nM
same,Ki,tau fibrils [6],263 ± 110 nM
"CN(C)c1ccc(/C=C/C=C2C(=O)N(Cc3ccccc3)c3ncccc32)cc1 [Compound 31, 1-Benzyl-3-(3-(4-(dimethylamino)phenyl)allylidene)-1H-pyrrolo[2,3-b]pyridin-2(3H)-one]",Ki,α-syn fibrils [4],68.3 ± 31.2 nM
same,Ki,Aβ1-42 fibrils [5],85.1 ± 23 nM
same,Ki,tau fibrils [6],257 ± 117 nM
"COc1ccc(CN2C(=O)C(=C/C=C/c3ccc(N(C)C)cc3)c3cccnc32)cc1 [Compound 32, 3-(3-(4-(Dimethylamino)phenyl)allylidene)-1-(4-methoxybenzyl)-1H-pyrrolo[2,3-b]pyridin-2(3H)-one]",Ki,α-syn fibrils [4],29.8 ± 6.6 nM
same,Ki,Aβ1-42 fibrils [5],107 ± 18.9 nM
same,Ki,tau fibrils [6],204 ± 26.7 nM
"CN(C)c1ccc(/C=C/C=C2C(=O)N(Cc3ccc(N)cc3)c3ccccc32)cc1 [Compound 33, 1-(4-Aminobenzyl)-3-(3-(4-(dimethylamino)phenyl)allylidene)indolin-2-one]",Ki,α-syn fibrils [4],43.6 ± 20 nM
same,Ki,Aβ1-42 fibrils [5],98.9 ± 12.1 nM
same,Ki,tau fibrils [6],131 ± 51.5 nM
"CN(C)c1ccc(/C=C/C=C2C(=O)N(c3ccccc3)c3ccccc32)cc1 [Compound 36, 3-(3-(4-(Dimethylamino)phenyl)allylidene)-1-phenylindolin-2-one]",Ki,α-syn fibrils [4],68.1 ± 33 nM
same,Ki,Aβ1-42 fibrils [5],287 ± 142 nM
same,Ki,tau fibrils [6],465 ± 94.6 nM
"O=C1Nc2ccccc2/C1=C/C=C/c1ccc([N+](=O)[O-])cc1 [Compound 41a, (Z)-3-((E)-3-(4-Nitrophenyl)allylidene)indolin-2-one]",time stable in solution,"[7]; CH2Cl2-MeOH (1:1), HPLC peak and retention time",≥ 20 h
"O=C1Nc2ccccc2/C1=C\C=C\c1ccc([N+](=O)[O-])cc1 [Compound 41b, (E)-3-((E)-3-(4-Nitrophenyl)allylidene)indolin-2-one]",isomerization to an un-identified isomer,"[7]; CH2Cl2-MeOH (1:1), 20 h, HPLC",33%
"Nc1ccc(/C=C/C=C2C(=O)Nc3ccccc32)cc1 [Compound 47, 3-(3-(4-Aminophenyl)allylidene)indolin-2-one]",Ki,α-syn fibrils [4],44.8 ± 15.6 nM
same,Ki,Aβ1-42 fibrils [5],50.8 ± 18.5 nM
same,Ki,tau fibrils [6],38.3 ± 28.7 nM
